From patent publication US7829560B2, “1,4-disubstituted naphthalenes as inhibitors of P38 MAP kinase” (Arqule, Inc., priority 2004, dated 2010)
pIC50: −log10 of the molar value. Where two headings read alike, the source gives them in different places.

Tests used:
[1] = biological target: T1, p38α (Homo sapiens, UniProt Q16539); assay: p38 MAP Kinase assay: inhibition of ATF2 phosphorylation, ELISA; type: biochemical; conditions: for pIC50: ATF2 phosphorylation, read-out: [ENZ] P38 ALPHA, IC50, ELISA; for inhibition at 10 µM: substrate ATF2, read-out: [ENZ] P38 ALPHA, PCT INH, ELISA (10 uM;ATF2) (Percent)
T1 construct: p38 MAP Kinases are recombinant human full-length proteins with an amino-terminal GST fusion; GST (N); purchased Upstate Biotechnology Inc; host or cells: E. coli
Summary of the method: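 GST-tagged full-length human p38 MAP kinase with GST-ATF2 (aa 19–96; 1.25 μM) and 40 μM ATP in HEPES pH 7.5 buffer, without (Method I) or with (Method II) 1% human serum albumin. Compound pre-incubated 15 min at room temperature; reaction 30 min at 37 °C; ATF2 Thr69 phosphorylation measured by ELISA (A450).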

[2] = system: TNFα release from THP-1 cells; assay: Inhibition of TNFα release from LPS-stimulated THP-1 cells, ELISA; type: cell-based; conditions: Homo sapiens, read-out: [CELL] THP-1, IC50, TNF ALPHA, ELISA
Text: Compounds of the invention are screened for the ability to inhibit TNFα and IL-1β release from THP-1 cells stimulated with lipopolysaccharide (LPS) in vitro. The ability of compounds to inhibit TNFα and IL-1β release in this in vitro assay is correlated with the inhibition of p38 activity and TNFα and IL-1β expression in vivo, and is therefore an indicator of potential in vivo therapeutic activity (Lee J. C. et al, Ann. N.Y. Acad. Sci. 696: 149-170, 1993 and Nature, 372: 739-746, 1994).
Materials: THP-1 cells from ATCC (TIB202) are maintained at 37° C., 5% CO2 in RPMI 1640 media (available from MediaTech, Herndon, Va.) containing 4.5 g/L glucose, supplemented with 10% fetal bovine serum, 1% penicillin/streptomycin and 50 μM β-mercaptoethanol.
Methods: Test compounds are initially dissolved in RPMI media with 1% DMSO (v/v). Compounds are then serially diluted in RPMI media for all subsequent dilutions. The assay is performed under sterile conditions. THP-1 cells at a culture density of 6-8×10^5 cells/ml are collected and resuspended in the RPMI media at 10^6 cells/ml containing 10% fetal bovine serum, no serum or 1% human serum albumin (HSA). 100 μl of resuspended cells are added to each well, which contain 100 μl of a test compound. Test compounds are prepared at twice the final concentration. Final DMSO concentration is no more than 0.5% (v/v). Cells are preincubated with compound for 30 minutes at 37° C., 5% CO2 prior to stimulation with lipopolysaccharide (LPS) (Sigma L-2880, 4 mg/ml stock in PBS). The final LPS concentration in each well is 10 or 30 μg/ml for TNFα and IL-1β release, respectively. Unstimulated control cell suspensions receive PBS vehicle only. Cell mixtures are incubated for 18 or 48 hours for TNFα and IL-1β prelease, respectively. 150 μl of supernatants are taken and transferred to a fresh plate and stored at −20° C. until further analysis. TNFα and IL-1β levels are measured using ELISA kits from Biosource (Catalog no. KHC3012 for TNFα; KAC1192 for IL-1β). A SpectraMAX 250 is used as the plate reader. Analysis is performed by non-linear regression to generate a dose response curve. The calculated IC50 value is the concentration of the test compound that causes a 50% decrease in TNFα or IL-1β levels.

T1 sequence (Q16539 whole entry, the tested form may be a part): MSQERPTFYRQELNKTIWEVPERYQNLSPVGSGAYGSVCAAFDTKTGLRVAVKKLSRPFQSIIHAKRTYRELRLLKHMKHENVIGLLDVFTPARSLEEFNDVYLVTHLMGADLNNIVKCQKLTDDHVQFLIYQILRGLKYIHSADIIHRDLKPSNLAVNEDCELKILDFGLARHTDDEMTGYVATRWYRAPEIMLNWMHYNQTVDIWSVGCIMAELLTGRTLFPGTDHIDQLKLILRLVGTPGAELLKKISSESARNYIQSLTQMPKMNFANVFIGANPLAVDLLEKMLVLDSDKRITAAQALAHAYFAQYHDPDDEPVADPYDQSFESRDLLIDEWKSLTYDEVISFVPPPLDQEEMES

pIC50 [1]	pIC50 ([2]; THP-1, THP-1 cells)	inhibition at 10 µM [1]	Compound	pIC50 ([2]; THP-1 cells)
< 5.00	< 5.00		C=Cc1ccc(-c2cccc(C(=O)Nc3ccc(OCCN4CCOCC4)c4ccccc34)c2)cc1 [Compound B281]	
< 5.00	< 5.00		O=C(Nc1ccc(OCCN2CCOCC2)c2ccccc12)c1cc(N2CCOCC2)ccc1Cl [Compound B41]	
7.44	< 6.00		CN(C(=N)N)c1nccc(Oc2ccc(NC(=O)c3cc(F)cc(N4CCCCC4)c3)c3ccccc23)n1 [Compound B413]	
5.50	5.39	66%	O=C(Nc1ccc(OCCN2CCOCC2)c2ccccc12)c1ccc2ccccc2c1 [Compound B85]	
< 5.00	5.56		O=C(Nc1ccc(OCCN2CCOCC2)c2ccccc12)c1ccnc(N2CCC(O)CC2)c1 [Compound B43, 4-Hydroxy-3,4,5,6-tetrahydro-2 H-[1,2′]bipyridinyl-4′-carboxylic acid [4-(2-morpholin-4-yl-ethoxy)-naphthalen-1-yl]-amide]	
< 5.00	< 5.00		Cc1ccc(-c2cccc(C(=O)Nc3ccc(OCCN4CCOCC4)c4ccccc34)c2)c(C)c1 [Compound B299]	
5.13	< 5.00		CSc1cccc(-c2cccc(C(=O)Nc3ccc(OCCN4CCOCC4)c4ccccc34)c2)c1 [Compound B298]	
5.57	< 5.00	72%	O=C(Nc1ccc(OCCN2CCC(O)CC2)c2ccccc12)c1cc(F)cc(N2CCCCC2)c1 [Compound B158, 3-Fluoro-N-{4-[2-(4-hydroxypiperidin-1-yl)-ethoxy]-naphthalen-1-yl}-5-piperidin-1-yl-benzamide]	
< 5.00	5.33		CC1CCN(c2cc(F)cc(C(=O)Nc3ccc(N4CCN(C(=O)OC(C)(C)C)CC4)c4ccccc34)c2)CC1 [Compound B192]	
5.73	5.44	59%	O=C(Nc1ccc(OCCN2CCOCC2)c2ccccc12)c1cccc(-c2cccc(C(F)(F)F)c2)c1 [Compound B88, 3′-Trifluoromethyl-biphenyl-3-carboxylic acid [4-(2-morpholin-4-yl-ethoxy)-naphthalen-1-yl]-amide]	
< 5.00	< 5.00		O=C(Nc1ccc(OCCN2CCOCC2)c2ccccc12)c1cc(F)cc(N2Cc3ccccc3C2)c1 [Compound B212]	
7.59	5.96		CCOC(=O)N1CCC(Nc2nccc(Oc3ccc(NC(=O)c4cc(F)cc(N5CCCCC5)c4)c4ccccc34)n2)CC1 [Compound B401, Ethyl-4-{[4-({4-[(3-fluoro-5-piperidin-1-ylbenzoyl)amino]-1-naphthyl}oxy)pyrimidin-2-yl]amino}piperidine-1-carboxylate]	
< 4.00	< 5.00		O=C(Nc1ccc(OCCN2CCOCC2)c2ccccc12)c1cnc(N2CCOCC2)c2ccccc12 [Compound B28]	
< 5.00	< 5.00		CCOC(=O)N1CCN(CCOc2ccc(NC(=O)c3ccc(CN4CCOCC4)cc3)c3ccccc23)CC1 [Compound B3]	
5.30	5.55		O=C(Nc1ccc(OCCN2CCOCC2)c2ccccc12)c1cccc(-c2cc(Cl)ccc2Cl)c1 [Compound B295]	
< 5.00	< 5.00		O=C(Nc1ccc(OCCN2CCOCC2)c2ccccc12)c1cc(F)cc(F)c1 [Compound B204]	
< 4.00	< 5.00		O=C(Nc1ccc(OCCN2CCSCC2)c2ccccc12)c1ccc(CN2CCOCC2)cc1 [Compound B4]	
< 5.00	< 5.00		CCOc1cccc(-c2cccc(C(=O)Nc3ccc(OCCN4CCOCC4)c4ccccc34)c2)c1 [Compound B286]	
< 5.00	< 5.00		CCOc1ccc(Cl)cc1-c1cccc(C(=O)Nc2ccc(OCCN3CCOCC3)c3ccccc23)c1 [Compound B301]	

pIC50 [1]	pIC50 ([2]; THP-1, THP-1 cells)	inhibition at 10 µM [1]	Compound	pIC50 ([2]; THP-1 cells)
5.85	5.61		O=C(Nc1ccc(OCCN2CCOCC2)c2ccccc12)c1cc(Cl)nc(N2CCOCC2)c1 [Compound B305]	
5.75	5.07		O=C1CCN(c2cc(F)cc(C(=O)Nc3ccc(OCCN4CCOCC4)c4ccccc34)c2)CC1 [Compound B198, 3-Fluoro-N-[4-(2-morpholin-4-yl-ethoxy)-naphthalen-1-yl]-5-(4-oxo-piperidin-1-yl)-benzamide]	
5.04	5.04		Cc1cc(-c2cccc(C(=O)Nc3ccc(OCCN4CCOCC4)c4ccccc34)c2)ccc1Cl [Compound B300]	
< 5.00	< 5.00		C[C@@H]1CN(CCOc2ccc(NC(=O)c3ccc(CN4CCOCC4)cc3)c3ccccc23)C[C@H](C)O1 [Compound B5]	
8.74	7.16		CN1CCC(Nc2nccc(Oc3ccc(NC(=O)c4cc(F)cc(N5CCCCC5)c4)c4ccccc34)n2)CC1 [Compound B409, 3-Fluoro-N-[4-({2-[(1-methylpiperidin-4-yl)amino]pyrimidin-4-yl}oxy)-1-naphthyl]-5-piperidin-1-ylbenzamide]	
< 5.00	< 5.00		O=C(Nc1ccc(OCCN2CCOCC2)c2ncccc12)c1cc(F)cc(N2CCOCC2)c1 [Compound B244]	
8.52	7.26		CCN1CCC[C@H]1CNc1nccc(Oc2ccc(NC(=O)c3cc(F)cc(N4CCCCC4)c3)c3ccccc23)n1 [Compound B419, N-(4-{[2-({[(2S)-1-Ethylpyrrolidin-2-yl]methyl}amino)pyrimidin-4-yl]oxy}-1-naphthyl)-3-fluoro-5-piperidin-1-ylbenzamide]	
< 5.00	< 5.00		COc1cccc(-c2cccc(C(=O)Nc3ccc(OCCN4CCOCC4)c4ccccc34)c2)c1OC [Compound B292]	
5.25	5.45		O=C(Nc1ccc(OCCN2CCOCC2)c2ccccc12)c1cccc(-c2cc(F)ccc2F)c1 [Compound B280]	
5.98	5.50		CC1CCC(Oc2cc(F)cc(C(=O)Nc3ccc(OCCN4CCOCC4)c4ccccc34)c2)CC1 (stereo not drawn) [Compound B234, 3-Fluoro-5-[(4-methylcyclohexyl)oxy]-N-[4-(2-morpholin-4-ylethoxy)-1-naphthyl]benzamide]	
8.41	7.03		COCC(C)Nc1nccc(Oc2ccc(NC(=O)c3cc(F)cc(N4CCOCC4)c3)c3ccccc23)n1 (stereo not drawn) [Compound B353]	
6.09	5.63	88.5%	CC1CCCN1c1cc(C(=O)Nc2ccc(OCCN3CCOCC3)c3ccccc23)ccn1 (stereo not drawn) [Compound B130, 2-(2-Methyl-pyrrolidin-1-yl)-N-[4-(2-morpholin-4-yl-ethoxy)-naphthalen-1-yl]-isonicotinamide]	
< 5.00	6.16		Cc1nc(C(=O)Nc2ccc(OCCN3CCOCC3)c3ccccc23)cc(N2CCOCC2)n1 [Compound B46]	
< 5.00	< 5.00		Cc1cc(COc2ccc(NC(=O)c3cc(F)cc(N4CCC(C)CC4)c3)c3ccccc23)no1 [Compound B243]	
6.05	5.45	78%	COc1cccc(-c2cccc(C(=O)Nc3ccc(OCCN4CCOCC4)c4ccccc34)c2)c1 [Compound B91]	
	4.97	41.3%	Cc1cccc(C(=O)Nc2ccc(OCCN3CCOCC3)c3ccccc23)c1Cl [Compound B82]	
< 5.00	< 5.00		Cc1ccc(-c2cccc(C(=O)Nc3ccc(OCCN4CCOCC4)c4ccccc34)c2)cc1C [Compound B276]	
5.43	5.32		O=C(Nc1ccc(OCCN2CCOCC2)c2ccccc12)c1cccc(-c2cccc(Cl)c2Cl)c1 [Compound B282]	
< 5.00	5.65	42%	COc1cccc(OC)c1-c1cccc(C(=O)Nc2ccc(OCCN3CCOCC3)c3ccccc23)c1 [Compound B108]	

Compound	pIC50 [1]	pIC50 ([2]; THP-1, THP-1 cells)	inhibition at 10 µM [1]	pIC50 ([2]; THP-1 cells)
O=C(Nc1ccc(OCCN2CCOCC2)c2ccccc12)c1cn(Cc2ccccc2)c2ccccc12 [Compound B49]	< 5.00			< 5.00
